Results from patent US11897925B2, “Treatment of homologous recombination deficient cancers” (Sinai Health System, priority 2020, dated 2024).

Key:
DLD1 BRCA2−/− cells = experiment: Micronuclei (MNi) assay after B6L induction; format: cell-based, human; conditions: BRCA2−/− cells held in G2 with RO-3306 prior to release in mitosis
Description: For TOPBP1 rescue experiments, DLD1 wild-type and BRCA2^−/− cells stably expressing 2×HA-TOPBP1 were generated by viral transduction and selection with blasticidin (7.5 μg/mL for parental cells, 10 μg/mL for BRCA2^−/− cells). 3 days after transduction with sgRNA viral particles (as described in the clonogenic survival assays), cells were seeded in a 96-well plate (1,500 for wild-type cells; 4,000 for BRCA2^−/− cells) and cultured for 4 additional days. For inducible B6L expression experiments, DLD1 and MDA-MB-436 cells were seeded in a 96-well plate (1,500 for DLD1 wild-type cells; 4,000 for DLD1 BRCA2^−/− cells; 14,000 for MDA-MB-436) and cultured for up to 4 days in the presence of Aqua-Shield-1.
For detection of micronuclei, cells were fixed with 2% PFA, washed 3 times with PBS, permeabilized with 0.3% Triton X-100 in PBS for 5 min, washed 3 times with PBS, incubated for 1 h with PBS+DAPI (0.5 μg/mL). Alternatively, cells were stained for immunofluorescence (CENPA detection). After the last wash with PBS, images were acquired on an IN Cell Analyzer 6000 automated microscope (GE Life Sciences) with a 40× objective. Micronuclei were automatically detected and counted using the Columbus analysis tool (PerkinElmer).

U2OS cells = experiment: CIP2A/TOPBP1 mitotic foci and filaments after aphidicolin; format: cell-based, human; conditions: 400 nM aphidicolin, 16 h; wild type and MDC1−/− U2OS; mostly independent of MDC1
Description: For the experiments relating to the mitotic structures labelled by CIP2A and TOPBP1, U2OS wild-type and MDC1^-/- cell lines were seeded on coverslips and either treated with 400 nM aphidicolin for 16 h (overnight) or left untreated. In order to perform immunofluorescence, cells were quickly washed once with cold PBS and then fixed with ice-cold methanol for 10 min on ice. Methanol was discarded and cells were washed two times with PBS before incubation with blocking buffer (10% FBS in PBS) for at least 1 h. Incubation with primary antibodies diluted in 5% FBS-PBS was performed overnight at 4° C. in a humidity chamber. Coverslips were then washed 3×10 min with blocking buffer and incubated with AlexaFluor-conjugated secondary antibodies for 1 h at room temperature in the dark. After washing 3×10 min with PBS, coverslips were mounted on glass microscopy slides (Thermo Scientific, 630-1985, dimensions […]×[…] mm) with […] mounting medium containing 0.5 μg/mL (DAPI) (Vector Laboratories, H-1200). Confocal images were acquired using a Leica SP8 inverse confocal laser scanning microscope with a 63×, 1.4-NA Plan-Apochromat oil-immersion objective. […] Images were recorded using optimal pixel size based on Nyquist criterion. […] Quantification of the foci was performed manually based on maximum intensity projections. […]

SMILES | B6L-induced micronucleation after holding cells in G2 (DLD1 BRCA2−/− cells) | frequency of CIP2A-TOPBP1 foci and filaments in mitotic cells (U2OS cells)
O=C1NC(=NCc2cccs2)S/C1=C\c1ccc2ncccc2c1 [RO-3306] | completely suppressed B6L-induced micronucleation | –
C[C@@]1(CO)[C@H](O)CC[C@@]2(C)[C@H]1CC[C@H]1C[C@@H]3C[C@@]12CC[C@]3(O)CO [aphidicolin] | – | increased
